Source: patent US20250222011A1, “DRUG TARGET FOR INHIBITING TUMOR, USE, AND ORAL DRUG” (CHI BIOTECH CO., LTD., priority 2024, published 2025)

Columns and labels:
Assay type in all cases: cell-based
SOX2 = assay: Western blotting of SOX2 expression after ATCA treatment; details: FIG. 4
liver cancer cells = assay: Proliferation of liver cancer cells (other experiments)
normal lung cells HBE = assay: Apoptosis by Annexin V and propidium iodide staining, flow cytometry; details: 0.5 mg/mL ATCA
nascent peptides = assay: Detection of nascent peptides (puromycin labelling, Western blotting); details: 1 mg/mL, FIG. 6
Method: Detection of nascent peptides: the cells were plated in a 6-well plate, with 200,000 cells in each well. After 24 h of adhesion, ATCA was added to make a working solution at a concentration of 1 mg/mL, while the control group was replaced with new medium. The experimental and control groups were treated for 2 h, 6 h, 12 h, 24 h, and 48 h separately, […], and cycloheximide was added to the positive control group for 10 min of treatment 25 min before sample collection. 10 μg/μL puromycin-labeled nascent peptide was added to all wells for 15 min, the medium was aspirated, the cells were washed twice with PBS, added with IP & WB lysis buffer to allow lysis on ice for 30 min, and centrifuged at 12,000 g for 20 min at 4° C. A resulting supernatant was transferred to a new centrifuge tube, 10 μg of protein was added to 5×SDS Loading Buffer, denatured in a 100° C. water bath for 10 min, and quantitatively detected by Western blotting. Western Blotting: the sample and molecular standard of pre-stained protein were loaded onto an SDS-PAGE gel (10 cm×10 cm) to allow electrophoresis at 100 V for 40 min. The proteins in SDS-PAGE were transferred to nitrocellulose membrane at 100 V, 230 mA within 1 h. After transfer, the nitrocellulose membrane was washed with 25 mL of TBS for 5 min at room temperature. […]

cancer cells = assay: LDH assay of cytotoxicity; details: 0.5 mg/mL
From the text: (§1) In addition, an LDH assay was adopted to determine the cytotoxicity of ATCA and detect the cytotoxicity of the drug.

normal cells (HBE) = assay: LDH assay of cytotoxicity; details: 0.5 mg/mL
From the text: as §1

## O=C(O)C1=CC(=C(c2ccc(O)c(C(=O)O)c2)c2ccc(O)c(C(=O)O)c2)C=CC1=O [ATCA, aurintricarboxylic acid]
SOX2
  SOX2 expression: downregulation
Liver cancer cells
  proliferation of liver cancer cells: inhibit the proliferation
Normal lung cells HBE
  apoptosis of normal lung cells HBE: did not show apoptosis
Nascent peptides; 2 h to 12 h after adding the drug
  protein synthesis (nascent peptides): had not been significantly blocked
Nascent peptides; 24 h to 48 h after adding the drug
  number of new peptide chains compared with that without the drug: significantly reduced
Cancer cells
  cytotoxicity to cancer cells (LDH): did not cause obvious cytotoxicity
Normal cells (HBE)
  cytotoxicity to normal cells (LDH): did not cause obvious cytotoxicity
